“And” between values parts separate entries of the source, which are not always exact repeats. Identical values can stand only once.
Columns and labels:
guinea pig lung slices = assay: Methacholine-induced airway constriction in guinea pig lung slices; type: cell-based; parameters: key to MCh-induced airway constriction response (Figure 5D): % of initial (baseline) airway luminal area; settings: for MCh-induced airway constriction response (Figure 5D): 10 µM Fenoterol + 25 µM Cmp6, Exp1-6
Protocol: All curve fits were generated using the software program GraphPad Prism. Data are represented as mean ± SEM obtained from 6 guinea pigs.
(§1) Precision-cut lung slices were prepared as described previously ([61], [62]). A 3% solution of low melting-point agarose (Gerbu Biotechnik GmbH) in ultrapure water was prepared by heating it a microwave until fully dissolved. […] After filling, the lungs were covered with ice for 30 minutes to solidify the agarose for slicing. […] Lung slices were cut at a thickness of 500 μm and washed several times with slicing buffer to remove debris and washout the isoproterenol. Slices were incubated overnight in a 60 mm dish in sterile incubation buffer: MEM composed of lung slice buffer supplemented with 0.5 mM sodium pyruvate, 1 mM glutamine (Gibco), MEM-amino acids mixture (1:50), MEM-vitamins mixture (1:100; Gibco), and penicillin-streptomycin (1:100; Gibco), pH = 7.2, at 37°C in a CO2- and humidity-controlled atmosphere.
(§2) After washing the slices in medium, individual guinea pig lung slices were mechanically maintained with a Teflon ring with an inner diameter of 7 mm and covered with 1 mL of incubation buffer. […] Image acquisition software (NIS-Elements, Nikon) was used to quantify airway luminal area. Images of the airways were acquired every 2 seconds during the whole course of the experiment, starting 2 minutes before the addition of any agent to allow for baseline measurements of the airway caliber. For each methacholine or ovalbumin concentration, the maximal airway constriction was expressed as percentage of the initial (baseline) airway luminal area and plotted against that concentration.

WT murine β2AR = WT murine β2AR (Mus musculus, UniProt P18762); assay: 125I-CYP radioligand competition binding, WT murine β2AR; settings: WT DMSO
Protocol: (§3) Statistical analyses were performed using 1-way ANOVA, repeated (related) measures with Tukey’s posthoc test.

V133F mutant murine β2AR = V133F mutant murine β2AR (Mus musculus, UniProt P18762, V133F); assay: 125I-CYP radioligand competition binding, V133F mutant murine β2AR; settings: V133F DMSO
Protocol: as §3

guinea pig β2AR = guinea pig β2AR (Cavia porcellus, UniProt Q8K4Z4); assay: 125I-CYP radioligand competition binding, guinea pig β2AR; settings: DMSO
[1] = test system: lung slices obtained from ovalbumin-sensitized guinea pigs; assay: Ovalbumin-induced airway constriction in lung slices from ovalbumin-sensitized guinea pigs; type: cell-based, guinea pig; settings: ovalbumin-sensitized guinea pigs; no treatment
Source text: All curve fits were generated using the software program GraphPad Prism. Data are represented as mean ± SEM of 4–5 guinea pigs (see Table 2 for statistical analyses).
Outbred, male, specified pathogen-free Dunkin Hartley guinea pigs (Charles River Laboratory) weighing 200 to 400 g were used. The animals were housed in pairs under a 12-hour light/dark cycle in a temperature- and humidity-controlled room with food and tap water ad libitum. For studies in the guinea pig model of allergic asthma, animals were actively IgE-sensitized to ovalbumin by injecting a suspension containing 100 μg/mL ovalbumin and 100 mg/mL Al(OH)3 in saline. Each animal was injected with 1.0 mL of suspension: 0.5 mL was injected i.p. and 0.5 mL was divided over 7 s.c. sites close to lymph nodes in the neck, paws, and lumbar regions ([24]). Animals were euthanized at least 4 weeks after sensitization.
as §1, §2

Chain of WT murine β2AR (P18762 whole entry): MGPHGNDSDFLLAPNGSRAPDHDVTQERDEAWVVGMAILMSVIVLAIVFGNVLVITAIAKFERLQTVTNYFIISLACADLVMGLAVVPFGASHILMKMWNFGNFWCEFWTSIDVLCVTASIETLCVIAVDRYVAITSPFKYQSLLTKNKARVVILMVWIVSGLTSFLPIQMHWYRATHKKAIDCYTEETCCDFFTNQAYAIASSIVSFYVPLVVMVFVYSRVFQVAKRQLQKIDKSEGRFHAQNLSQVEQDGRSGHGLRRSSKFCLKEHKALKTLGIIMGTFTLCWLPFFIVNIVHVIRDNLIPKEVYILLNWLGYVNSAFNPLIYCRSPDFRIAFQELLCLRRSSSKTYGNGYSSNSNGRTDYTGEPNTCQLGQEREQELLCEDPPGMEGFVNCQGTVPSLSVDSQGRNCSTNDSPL
Chain of V133F mutant murine β2AR (P18762 whole entry V133F): as the sequence (P18762 whole entry) above, with V133F counted along it
Chain of guinea pig β2AR (Q8K4Z4 whole entry): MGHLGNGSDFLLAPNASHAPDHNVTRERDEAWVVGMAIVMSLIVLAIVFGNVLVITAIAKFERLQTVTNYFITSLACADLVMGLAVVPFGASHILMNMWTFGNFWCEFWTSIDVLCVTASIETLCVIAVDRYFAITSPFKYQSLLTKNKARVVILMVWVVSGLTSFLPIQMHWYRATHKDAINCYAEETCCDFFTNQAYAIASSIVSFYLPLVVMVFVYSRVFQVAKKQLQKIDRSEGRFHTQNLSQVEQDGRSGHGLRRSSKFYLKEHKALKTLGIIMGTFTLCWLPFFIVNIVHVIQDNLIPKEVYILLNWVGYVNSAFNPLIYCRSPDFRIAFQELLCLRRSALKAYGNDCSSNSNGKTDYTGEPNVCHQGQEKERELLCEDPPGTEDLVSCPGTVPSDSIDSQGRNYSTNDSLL

For `COc1ccc(Sc2ccc(S(=O)(=O)N(C)C(C)C)cc2C(=O)N[C@H](CC(N)=O)Cc2ccc(C(C)(C)C)cc2)cc1` [Cmp6], the “MCh-induced airway constriction response (Figure 5D)” value (guinea pig lung slices; -Log [MCh] 6.5) was 84.9 and 96.3 and 94.4 and 89.0 and 84.3, the “MCh-induced airway constriction response (Figure 5D)” value (guinea pig lung slices; -Log [MCh] 7) was 103.8 and 101.2 and 95.0 and 101.0 and 99.7 and the “MCh-induced airway constriction response (Figure 5D)” value (guinea pig lung slices; -Log [MCh] 7.5) was 104.7 and 102.5 and 101.8 and 96.6 and 103.6 and 102.8. The “MCh-induced airway constriction response (Figure 5D)” value (guinea pig lung slices; -Log [MCh] 8) was 105.1 and 102.7 and 102.2 and 96.3 and 103.7 and 102.1.

For `CC(C)NCC(O)c1ccc(O)c(O)c1` (stereo not shown) [ISO, isoproterenol, reference compound], the “125I-CYP binding (% of maximal)” value (WT murine β2AR; log[ISO] -4 M) was -0.1438% and -0.4111% and -0.227% and -0.3498%, the “125I-CYP binding (% of maximal)” value (WT murine β2AR; log[ISO] -4.49485 M) was 2.592% and 1.529% and 1.507% and 1.987% and the “125I-CYP binding (% of maximal)” value (WT murine β2AR; log[ISO] -5.09691 M) was 7.083% and 4.639% and 5.507% and 5.149%. The “125I-CYP binding (% of maximal)” value (WT murine β2AR; log[ISO] -5.69897 M) was 19.715% and 17.6774% and 15.359% and 15.8985%, the “125I-CYP binding (% of maximal)” value (WT murine β2AR; log[ISO] -6.30103 M) was 44.1973% and 39.2701% and 36.5787% and 38.852% and the “125I-CYP binding (% of maximal)” value (WT murine β2AR; log[ISO] -6.90309 M) was 69.5556% and 67.7036% and 62.3553% and 65.7463%. The “125I-CYP binding (% of maximal)” value (WT murine β2AR; log[ISO] -7.50515 M) was 90.4216% and 85.9767% and 84.6762% and 89.3527%, the “125I-CYP binding (% of maximal)” value (WT murine β2AR; log[ISO] -8.10721 M) was 98.0111% and 97.6178% and 94.6894% and 94.0001% and the “125I-CYP binding (% of maximal)” value (WT murine β2AR; log[ISO] -8.70927 M) was 99.06% and 99.1113% and 98.9767% and 100.68%. The “125I-CYP binding (% of maximal)” value (WT murine β2AR; log[ISO] -9.31133 M) was 98.5309% and 100.484% and 102.846% and 102.836%, the “125I-CYP binding (% of maximal)” value (WT murine β2AR; log[ISO] -9.91339 M) was 103.967% and 101.665% and 101.826% and 99.0182% and the “125I-CYP binding (% of maximal)” value (V133F mutant murine β2AR; log[ISO] -4 M) was -0.1642% and -0.422% and -0.2235% and 0.05522%. The “125I-CYP binding (% of maximal)” value (V133F mutant murine β2AR; log[ISO] -4.49485 M) was 1.355% and 1.539% and 1.229% and 0.6906%, the “125I-CYP binding (% of maximal)” value (V133F mutant murine β2AR; log[ISO] -5.09691 M) was 4.785% and 4.497% and 3.5069% and 4.749% and the “125I-CYP binding (% of maximal)” value (V133F mutant murine β2AR; log[ISO] -5.69897 M) was 14.8509% and 14.5905% and 12.5433% and 13.7771%. For the same molecule, the “125I-CYP binding (% of maximal)” value (V133F mutant murine β2AR; log[ISO] -6.30103 M) was 36.9962% and 34.2695% and 32.8754% and 34.2526%, the “125I-CYP binding (% of maximal)” value (V133F mutant murine β2AR; log[ISO] -6.90309 M) was 66.198% and 62.9489% and 57.7767% and 62.1859% and the “125I-CYP binding (% of maximal)” value (V133F mutant murine β2AR; log[ISO] -7.50515 M) was 86.6591% and 87.6539% and 79.9524% and 86.2876%. The “125I-CYP binding (% of maximal)” value (V133F mutant murine β2AR; log[ISO] -8.10721 M) was 96.9071% and 95.4546% and 94.0497% and 96.919%, the “125I-CYP binding (% of maximal)” value (V133F mutant murine β2AR; log[ISO] -8.70927 M) was 99.4994% and 99.6962% and 98.92% and 100.879% and the “125I-CYP binding (% of maximal)” value (V133F mutant murine β2AR; log[ISO] -9.31133 M) was 99.9887% and 99.7215% and 100.53% and 99.951%. For the same molecule, the “125I-CYP binding (% of maximal)” value (V133F mutant murine β2AR; log[ISO] -9.91339 M) was 102.257% and 101.759% and 102.441% and 98.1746%, the “125I-CYP binding, ISO competition curve (Figure 4B)” value (“125I-CYP binding … (Figure 4B)” below) (guinea pig β2AR; Log [ISO] (M) -4.49485) was 1.551 and 1.783 and 2.036 and 2.11 and 1.706 and the “125I-CYP binding … (Figure 4B)” value (guinea pig β2AR; Log [ISO] (M) -5.09691) was 4.5383 and 7.032 and 7.563 and 7.078 and 5.303. For the same molecule, the “125I-CYP binding … (Figure 4B)” value (guinea pig β2AR; Log [ISO] (M) -5.69897) was 13.7083 and 20.96 and 21.5014 and 20.9933 and 15.5868, the “125I-CYP binding … (Figure 4B)” value (guinea pig β2AR; Log [ISO] (M) -6.90309) was 63.0711 and 57.4939 and 78.0004 and 74.7226 and 70.0255 and the “125I-CYP binding … (Figure 4B)” value (guinea pig β2AR; Log [ISO] (M) -7.50515) was 85.6262 and 93.2237 and 94.6971 and 93.7843 and 89.3743. For the same molecule, the “125I-CYP binding … (Figure 4B)” value (guinea pig β2AR; Log [ISO] (M) -8.10721) was 99.3825 and 97.8919 and 98.1464 and 96.8121 and 98.8078, the “125I-CYP binding … (Figure 4B)” value (guinea pig β2AR; Log [ISO] (M) -8.70927) was 98.4434 and 97.4234 and 99.4183 and 101.041 and 99.2113 and the “125I-CYP binding … (Figure 4B)” value (guinea pig β2AR; Log [ISO] (M) -9.31133) was 100.682 and 98.3967 and 100.968 and 99.8594 and 99.9768. For the same molecule, the “125I-CYP binding … (Figure 4B)” value (guinea pig β2AR; Log [ISO] (M) -9.91339) was 97.8042 and 98.3188 and 100.175 and 101.941 and 100.458.

In the case of `CC(=O)OC(C)C[N+](C)(C)C` (stereo not shown) [Methacholine, methacholine], the EC50 (guinea pig lung slices; Cavia porcellus, naive guinea pigs, no treatment, read-out: EC50 of airway constriction) is reported as 250 ± 60 nM.

B1: Ovalbumin: the allergen used in IgE-sensitized guinea pigs (protein, UniProt P01012 2-386, looked up)
Ovalbumin: GSIGAASMEFCFDVFKELKVHHANENIFYCPIAIMSALAMVYLGAKDSTRTQINKVVRFDKLPGFGDSIEAQCGTSVNVHSSLRDILNQITKPNDVYSFSLASRLYAEERYPILPEYLQCVKELYRGGLEPINFQTAADQARELINSWVESQTNGIIRNVLQPSSVDSQTAMVLVNAIVFKGLWEKAFKDEDTQAMPFRVTEQESKPVQMMYQIGLFRVASMASEKMKILELPFASGTMSMLVLLPDEVSGLEQLESIINFEKLTEWTSSNVMEERKIKVYLPRMKMEEKYNLTSVLMAMGITDVFSSSANLSGISSAESLKISQAVHAAHAEINEAGREVVGSAEAGVDAASVSEEFRADHPFLFCIKHIATNAVLFFGRCVSP
For B1, the “EC50 of airway constriction” value [1] was 8.0 ± 2.4 ng/mL.

— PMC10503797, “Allosteric modulator potentiates β2AR agonist–promoted bronchoprotection in asthma models” (The Journal of Clinical Investigation, 2023)
